Among the data in patent EP0378671B1, “INSULINOMIMETIC AND INSULIN RECEPTOR BINDING SITE PEPTIDES” (CITY OF HOPE, priority 1988, dated 1997) are stimulation of lipogenesis values, retold here.

This experiment has as its system isolated rat adipocytes. The experiment in a line: Lipogenesis assay: incorporation of 3-[3H] glucose into lipids. Format: cell-based. As to conditions: 2 hours at 37°C, compared with insulin and basal (Figure 10). The method, then: The lipogenesis assay was conducted according to Smal, et al., J.Biol.Chem. 262:11071-11079 (1987). Dissected epididymal and retroperitoneal fat pads were digested under vigorous shaking at 37°C for 30 min with collagenase (1.0 mg/ml) in Krebs-Ringer-Heps (KRH) buffer, pH 7.4, 35 mg/ml dialyzed bovine serum albumin (BSA), 0.27 mM glucose. After filtration on cheesecloth and 4 washes in KRH with 10 mg/ml BSA, the adipocytes were preincubated for 4 hours at 37°C in the same buffer.
The lipogenesis assay was performed in triplicate in 6 ml polyethylene vials by adding successively 400 µl of adipocyte suspension (80 X l0^3 cells/ml), 50 µl of KRH buffer pH 7.4 (1% BSA, 0.27 mM glucose) without hormone (basal lipogenesis) or with insulin or receptor-derived peptides at the indicated concentrations, and 50 µl D-[3-^3H]-glucose in a total volume of 0.5 ml. The vials were incubated 2 hours at 37°C under gentle shaking. […]

“insulin receptor sequence 81-91: peptide with insulin receptor sequence 81-91 (LIMITDYLLLF; UniProt P06213 81-91, looked up, fragment)”: the stimulation of lipogenesis result is “totally inactive”. The stimulation of lipogenesis result (listed as insulin receptor sequence 81 to 91) is on record as “not stimulated above basal”.
